Test results from patent publication US5583115A, “Dialkyltiacumicin compounds” (Abbott Laboratories, priority 1995, dated 1996).
In brackets after ≈: the same amount, converted by molar mass. Like-named read-outs stand apart in the source and are kept apart here.

What was measured:
B. bivius = assay: MIC agar dilution, anaerobic bacteria; assay type: cell-based; conditions: Prevotella bivia, 20 h
Fusobacterium nucleatum = assay: MIC agar dilution, anaerobic bacteria; assay type: cell-based; conditions: Fusobacterium nucleatum, 20 h
C. ramosum = assay: MIC agar dilution, anaerobic bacteria; assay type: cell-based; conditions: Thomasclavelia ramosa, 20 h
B. vulgatus = assay: MIC agar dilution, anaerobic bacteria; assay type: cell-based
Veillonella parvula = assay: MIC agar dilution, anaerobic bacteria; assay type: cell-based; conditions: Veillonella parvula, 20 h
Clostridium perfringens = assay: microbe, parasite or virus in culture; assay type: cell-based; conditions: Clostridium perfringens, 20 h
[1] = tested on: Peptostreptococcus asaccharolyticus; assay: MIC agar dilution, anaerobic bacteria; assay type: cell-based; conditions: Peptoniphilus asaccharolyticus, 20 h
C. difficile = assay: MIC agar dilution, anaerobic bacteria; assay type: cell-based; conditions: Clostridioides difficile, 20 h
Fusobacterium species = assay: MIC agar dilution, anaerobic bacteria; assay type: cell-based; conditions: Fusobacterium, 20 h
Propionibacterium acnes = assay: MIC agar dilution, anaerobic bacteria; assay type: cell-based; conditions: Cutibacterium acnes, 20 h
B. disiens = assay: MIC agar dilution, anaerobic bacteria; assay type: cell-based; conditions: Prevotella disiens, 20 h
P. anaerobius = assay: MIC agar dilution, anaerobic bacteria; assay type: cell-based; conditions: Peptostreptococcus anaerobius, 20 h
Bacteriodes fragilis = assay: MIC agar dilution, anaerobic bacteria; assay type: cell-based; conditions: 20 h
P. magnus = assay: MIC agar dilution, anaerobic bacteria; assay type: cell-based; conditions: Finegoldia magna, 20 h
B. loescheii = assay: MIC agar dilution, anaerobic bacteria; assay type: cell-based; conditions: Hoylesella loescheii, 20 h
B. thetaiotaomicron = assay: MIC agar dilution, anaerobic bacteria; assay type: cell-based
P. species = assay: MIC agar dilution, anaerobic bacteria; assay type: cell-based; conditions: 20 h; Culture # 1776; read-out: MIC
S. pyogenes = assay: MIC agar dilution, aerobic and facultative bacteria; conditions: Streptococcus pyogenes, 20 h
Streptococcus bovis = assay: as above; conditions: Streptococcus equinus, 20 h
Klebsiella pneumoniae = assay: as above; conditions: Klebsiella pneumoniae, 20 h
Pseudomonas aeruginosa = assay: as above
S. epidermidis = assay: as above; conditions: Staphylococcus epidermidis, 20 h
[2] = tested on: Acinetobacter calcoaceticus; assay: as above; conditions: Acinetobacter calcoaceticus, 20 h
Micrococcus luteus = assay: as above; conditions: Micrococcus luteus, 20 h
P. cepacia = assay: as above; conditions: Burkholderia cepacia, 20 h
Providencia stuartii = assay: as above; conditions: Providencia stuartii, 20 h
Enterobacter aerogenes = assay: as above; conditions: Klebsiella aerogenes, 20 h
Staphylococcus aureus = assay: as above; conditions: Staphylococcus aureus, 20 h
Enterococcus faecium = assay: as above; conditions: Enterococcus faecium, 20 h
Clostridium difficile = assay: In vivo hamster model of pseudomembranous Clostridium difficile induced colitis; conditions: for % Mortality: days 8-14, expiring by day 20
Description: (Suppression of normal gastrointestinal bacteria by the ciprofloxacin permitted the drug-resistant C. difficile to predominate.) Five additional hamsters were segregated as a noninfected control group.
The infected animals were divided into three groups comprising (a) 10 untreated animals; (b) 15 vancomycin-treated animals (5 each at 20, 10 and 1 mg/kg/day orally on days 8-14); and (c) 10 animals treated with the compound of Example 2 (5 each at 10 and 1 mg/kg/day on days 8-14). The subject animals were monitored for (a) body weight (infected hamsters lose significant body mass), and (b) mortality (percent expiring by day 20).

E. coli = assay: MIC agar dilution, aerobic and facultative bacteria; assay type: cell-based; conditions: Escherichia coli, 20 h, read-out: MIC
Streptococcus agalactiae = assay: as above; conditions: Streptococcus agalactiae, 20 h
[3] = Bacteroides thetaiotaomicron, 20 h, Culture # 1764, read-out: MIC

## CCC[C@@H]1C[C@@H](C(=O)N[C@@H]([C@H]2O[C@H](SC)[C@H](O)[C@@H](O)[C@H]2O)[C@H](C)Cl)N(C)C1 [Clindamycin]
B. bivius; Culture # 2483, read-out: MIC
  MIC: 0.015 µg/mL (≈ 0.0353 µM)
Fusobacterium nucleatum; Culture # 2478, read-out: MIC
  MIC: 0.12 µg/mL (≈ 0.282 µM)
C. ramosum; Culture # 2482, read-out: MIC
  MIC: 1 µg/mL (≈ 2.35 µM)
B. vulgatus; Culture # 2481
  MIC: 0.03 µg/mL (≈ 0.0706 µM)
B. vulgatus; Phocaeicola vulgatus, 20 h, Culture # 1762, read-out: MIC
  MIC: 0.03 µg/mL (≈ 0.0706 µM)
Veillonella parvula; Culture # 2479, read-out: MIC
  MIC: 0.06 µg/mL (≈ 0.141 µM)
Clostridium perfringens; Culture # 1771
  MIC: 0.06 µg/mL (≈ 0.141 µM)
Clostridium perfringens; Culture # 1772
  MIC: 0.5 µg/mL (≈ 1.18 µM)
Clostridium perfringens; Culture # 1773
  MIC: 0.06 µg/mL (≈ 0.141 µM)
[1]; Culture # 1777, read-out: MIC
  MIC: 0.03 µg/mL (≈ 0.0706 µM)
C. difficile; Culture # 1496, read-out: MIC
  MIC: > 32 µg/mL
C. difficile; Culture # 1497, read-out: MIC
  MIC: > 32 µg/mL
C. difficile; Culture # 1774, read-out: MIC
  MIC: 0.5 µg/mL (≈ 1.18 µM)
C. difficile; Culture # 2025, read-out: MIC
  MIC: 4 µg/mL (≈ 9.41 µM)
C. difficile; Culture # 2480, read-out: MIC
  MIC: 4 µg/mL (≈ 9.41 µM)
C. difficile; Culture # 2528, read-out: MIC
  MIC: 4 µg/mL (≈ 9.41 µM)
C. difficile; Culture # 2529, read-out: MIC
  MIC: 4 µg/mL (≈ 9.41 µM)
Fusobacterium species; Culture # 1770, read-out: MIC
  MIC: 0.12 µg/mL (≈ 0.282 µM)
Propionibacterium acnes; Culture # 1775, read-out: MIC
  MIC: 0.06 µg/mL (≈ 0.141 µM)
B. disiens; Culture # 1763, read-out: MIC
  MIC: 0.015 µg/mL (≈ 0.0353 µM)
P. anaerobius; Culture # 1780, read-out: MIC
  MIC: 0.06 µg/mL (≈ 0.141 µM)
Bacteriodes fragilis; Culture # 1756, Wilkins-Chalgren agar, 37° C., 48 hours, read-out: MIC
  MIC: 1 µg/mL (≈ 2.35 µM)
Bacteriodes fragilis; Culture # 1757, read-out: MIC
  MIC: 1 µg/mL (≈ 2.35 µM)
Bacteriodes fragilis; Culture # 1758, read-out: MIC
  MIC: 0.5 µg/mL (≈ 1.18 µM)
Bacteriodes fragilis; Culture # 1999, read-out: MIC
  MIC: 1 µg/mL (≈ 2.35 µM)
P. magnus; Culture # 1778, read-out: MIC
  MIC: 1 µg/mL (≈ 2.35 µM)
B. loescheii; Culture # 1767, read-out: MIC
  MIC: 0.06 µg/mL (≈ 0.141 µM)
B. thetaiotaomicron; [3]
  MIC: 4 µg/mL (≈ 9.41 µM)
B. thetaiotaomicron; Culture # 1765
  MIC: 4 µg/mL (≈ 9.41 µM)
B. thetaiotaomicron; Culture # 1766
  MIC: 4 µg/mL (≈ 9.41 µM)
P. species
  MIC: 0.06 µg/mL (≈ 0.141 µM)

## CN[C@H](CC(C)C)C(=O)N[C@H]1C(=O)N[C@@H](CC(N)=O)C(=O)N[C@H]2C(=O)N[C@H]3C(=O)N[C@H](C(=O)N[C@H](C(=O)O)c4cc(O)cc(O)c4-c4cc3ccc4O)[C@H](O)c3ccc(c(Cl)c3)Oc3cc2cc(c3O[C@@H]2O[C@H](CO)[C@@H](O)[C@H](O)[C@H]2O[C@H]2C[C@](C)(N)[C@H](O)[C@H](C)O2)Oc2ccc(cc2Cl)[C@H]1O [Vancomycin]
S. pyogenes; Culture # 1671
  MIC: 3.1 µg/mL (≈ 2.14 µM)
S. pyogenes; const., Culture # 1672
  MIC: 0.78 µg/mL (≈ 0.538 µM)
S. pyogenes; inducible, Culture # 2548
  MIC: 0.78 µg/mL (≈ 0.538 µM)
B. bivius
  MIC: 32 µg/mL (≈ 22.1 µM)
Fusobacterium nucleatum
  MIC: > 64 µg/mL
C. ramosum
  MIC: 8 µg/mL (≈ 5.52 µM)
Streptococcus bovis
  MIC: 0.78 µg/mL (≈ 0.538 µM)
B. vulgatus; Phocaeicola vulgatus, 20 h, Culture # 2481
  MIC: 64 µg/mL (≈ 44.2 µM)
B. vulgatus; Phocaeicola vulgatus, 20 h, Culture # 1762
  MIC: 32 µg/mL (≈ 22.1 µM)
Veillonella parvula
  MIC: > 64 µg/mL
Clostridium perfringens; Culture # 1771
  MIC: > 64 µg/mL
Clostridium perfringens; Culture # 1772
  MIC: 0.5 µg/mL (≈ 0.345 µM)
Clostridium perfringens; Culture # 1773
  MIC: 1 µg/mL (≈ 0.69 µM)
Klebsiella pneumoniae
  MIC: > 200 µg/mL
[1]
  MIC: 1 µg/mL (≈ 0.69 µM)
Pseudomonas aeruginosa; Culture # 1680
  MIC: > 200 µg/mL
Pseudomonas aeruginosa; Culture # 1681
  MIC: > 200 µg/mL
Pseudomonas aeruginosa; Culture # 1682
  MIC: > 200 µg/mL
Pseudomonas aeruginosa; Pseudomonas aeruginosa, 20 h
  MIC: > 200 µg/mL
Pseudomonas aeruginosa; cipro R, Culture # 1919
  MIC: > 200 µg/mL
Pseudomonas aeruginosa; cipro R, Culture # 1920
  MIC: > 200 µg/mL
C. difficile; Culture # 1496
  MIC: 0.5 µg/mL (≈ 0.345 µM)
C. difficile; Culture # 1497
  MIC: 0.5 µg/mL (≈ 0.345 µM)
C. difficile; Culture # 1774
  MIC: 2 µg/mL (≈ 1.38 µM)
C. difficile; Culture # 2025
  MIC: 0.5 µg/mL (≈ 0.345 µM)
C. difficile; Culture # 2480
  MIC: > 64 µg/mL
C. difficile; Culture # 2528
  MIC: 1 µg/mL (≈ 0.69 µM)
C. difficile; Culture # 2529
  MIC: 1 µg/mL (≈ 0.69 µM)
S. epidermidis
  MIC: 3.1 µg/mL (≈ 2.14 µM)
[2]
  MIC: > 200 µg/mL
Micrococcus luteus; Culture # 2493
  MIC: 0.78 µg/mL (≈ 0.538 µM)
Micrococcus luteus; Culture # 2517
  MIC: 3.1 µg/mL (≈ 2.14 µM)
Fusobacterium species
  MIC: > 64 µg/mL
P. cepacia
  MIC: > 200 µg/mL
Providencia stuartii
  MIC: > 200 µg/mL
Propionibacterium acnes
  MIC: 0.5 µg/mL (≈ 0.345 µM)
Enterobacter aerogenes
  MIC: > 200 µg/mL
B. disiens
  MIC: 32 µg/mL (≈ 22.1 µM)
P. anaerobius
  MIC: 0.5 µg/mL (≈ 0.345 µM)
Bacteriodes fragilis; Culture # 1756, Wilkins-Chalgren agar, 37° C., 48 hours
  MIC: 32 µg/mL (≈ 22.1 µM)
Bacteriodes fragilis; Culture # 1757
  MIC: 32 µg/mL (≈ 22.1 µM)
Bacteriodes fragilis; Culture # 1758
  MIC: 16 µg/mL (≈ 11 µM)
Staphylococcus aureus; Culture # 1662, brain heart infusion agar, 37° C.
  MIC: 3.1 µg/mL (≈ 2.14 µM)
Staphylococcus aureus; Culture # 1664
  MIC: 1.56 µg/mL (≈ 1.08 µM)
Staphylococcus aureus; Culture # 1690
  MIC: 1.56 µg/mL (≈ 1.08 µM)
Staphylococcus aureus; Culture # 2124
  MIC: 3.1 µg/mL (≈ 2.14 µM)
Staphylococcus aureus; Culture # 2130
  MIC: 3.1 µg/mL (≈ 2.14 µM)
Staphylococcus aureus; Culture # 2498
  MIC: 3.1 µg/mL (≈ 2.14 µM)
Staphylococcus aureus; cipro res., Culture # 3384
  MIC: 1.56 µg/mL (≈ 1.08 µM)
P. magnus
  MIC: 0.5 µg/mL (≈ 0.345 µM)
Enterococcus faecium
  MIC: 3.1 µg/mL (≈ 2.14 µM)
B. loescheii
  MIC: 32 µg/mL (≈ 22.1 µM)
Clostridium difficile; 1 mg/kg versus 10 or 20 mg/kg
  rapidity of mortality: more rapid mortality than hamsters treated at 10 or 20 mg/kg
Clostridium difficile; 1 mg/kg/day
  % Mortality: 100%
Clostridium difficile; 10 mg/kg/day
  % Mortality: 100%
Clostridium difficile; 20 mg/kg/day, orally
  % Mortality: 100%
B. thetaiotaomicron; [3]
  MIC: > 64 µg/mL
B. thetaiotaomicron; Culture # 1765
  MIC: > 64 µg/mL
B. thetaiotaomicron; Culture # 1766
  MIC: > 64 µg/mL
P. species
  MIC: 1 µg/mL (≈ 0.69 µM)
E. coli; DC-2, Culture # 1674
  MIC: > 200 µg/mL
E. coli; H560, Culture # 1675
  MIC: > 200 µg/mL
E. coli; Juhl, Culture # 1673
  MIC: > 200 µg/mL
E. coli; KNK437, Culture # 1676
  MIC: > 200 µg/mL
E. coli; SS, Culture # 2489
  MIC: 50 µg/mL (≈ 34.5 µM)
Streptococcus agalactiae
  MIC: 3.1 µg/mL (≈ 2.14 µM)
